Among the data in BindingDB's records for doi:10.7270/Q2N014XN (Srmlsc, 2007) are IC50 values, retold here.

Bounds are passed on as bounds.

The term IC50 denotes the concentration that gives 50% inhibition. Higher therefore signals a need for much substance.

The target of one experiment is T1, Diphosphomevalonate decarboxylase (Streptococcus pneumoniae serotype 2 (strain D39 / NCTC 7466), UniProt A0A0H2ZN59).
T1 sequence (A0A0H2ZN59 whole entry): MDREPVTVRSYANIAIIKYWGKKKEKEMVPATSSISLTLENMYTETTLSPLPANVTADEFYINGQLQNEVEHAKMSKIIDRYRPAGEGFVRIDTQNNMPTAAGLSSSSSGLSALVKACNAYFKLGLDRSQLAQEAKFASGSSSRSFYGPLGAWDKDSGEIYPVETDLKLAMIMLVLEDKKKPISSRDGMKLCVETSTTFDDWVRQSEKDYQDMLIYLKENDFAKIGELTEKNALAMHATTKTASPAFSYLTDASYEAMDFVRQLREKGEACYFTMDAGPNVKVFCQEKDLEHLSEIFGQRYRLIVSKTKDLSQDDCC
As to the kind of experiment: S. pneumoniae DPM-DC inhibitor potency, dose response, biochemical, PK/LDH-coupled NADH fluorescence, hexokinase coupling counter-screen (AID 550).
Conditions: not given
On the technique in general: A counterscreen serves to expose hits that act by an unwanted route or on another target.
Compound `Cc1cccn2c(=O)c3cc(C#N)/c(=N\C(=O)c4ccc5c(c4)OCO5)n(CC(C)C)c3nc12` [MLS000082296] displayed a 50% inhibitory concentration (IC50) of 118 µM.

In turn, `Cn1c(=O)[nH]c(=O)c2c1nc(NC1CCCCC1)n2Cc1ccccc1` [MLS000083828] returned an IC50 of over 10000 µM.

For the compound `CN(c1nc2ccccc2n2c(-c3ccco3)nnc12)S(=O)(=O)c1ccccc1` [MLS000083900], the IC50 came out at 35.8 µM.

As to `CC(C)c1nc2oc3c(NCc4ccccn4)ncnc3c2c2c1COC(C)(C)C2` [MLS000084035], the midpoint of inhibition, the IC50, lay at 813 µM.

In the case of `O=P1(NC2CCCC2)COc2ccccc2OC1` [MLS000084153], the IC50 was over 10000 µM.

Regarding `Cc1nc2oc3c(NCC4CCCO4)ncnc3c2c2c1COC(C)(C)C2` (stereo not drawn) [MLS000084527], the IC50 is 22.3 µM.

In turn, `Cc1nc2oc3c(NCc4ccccn4)ncnc3c2c2c1COC(C)(C)C2` [MLS000084529] yielded an IC50 of over 10000 µM.

As to `Cc1cccc(C)c1NC(=O)C(c1ccccc1)N1CCN(C(=O)c2ccco2)CC1` (stereo not drawn) [MLS000086418], the IC50 is over 10000 µM.

`COc1cc2c(cc1NC(=O)c1ccc3c(c1)OCO3)oc1ccccc12` [MLS000088875] returned an IC50 of over 10000 µM.

Turning to `O=C1CCC(C(=O)N(Cc2ccco2)C2(C(=O)NC3CCCC3)CCCCC2)N1` (stereo not drawn) [MLS000090457], the half-inhibitory concentration (IC50) is over 10000 µM.

Take `COc1ccc(N2CCN(CCNS(=O)(=O)c3cccc4nsnc34)CC2)cc1` [MLS000090468]: the IC50 is over 10000 µM.

`O=C(CCc1nc(-c2ccccc2F)no1)NCCN1CCc2ccccc2C1` [MLS000091170] registered an IC50 of over 10000 µM.

For `COc1ccccc1-c1nc(C(N)=O)c2[nH]c(=O)n(-c3cccc(C)c3)c2n1` [MLS000094139], the IC50 worked out at 21.6 µM.

Compound `CC(=O)NCCn1c(SCc2cc(=O)n3cc(Cl)ccc3n2)nc2ccccc2c1=O` [MLS000095256] came in with an IC50 of 70.6 µM.

For the compound `O=c1c2cc(N3CCOCC3)ccc2[nH]c(=S)n1Cc1ccccn1` [MLS000095415], the half-maximal inhibitory concentration (IC50) stood at 36.1 µM.

As for `COCCCn1c(=S)[nH]c2ccc(N3CCOCC3)cc2c1=O` [MLS000095418], the IC50 was found to be 26.7 µM.

As for `COc1ccccc1CNc1ncnc2nc[nH]c12` [MLS000101257], the IC50 is over 10000 µM.

In turn, `Cn1/c(=N/C(=O)c2ccco2)sc2cccc(F)c21` [MLS000101506] yielded an IC50 of over 10000 µM.

As for `CC1Cc2nc(SCC(=O)Nc3ccc4c(c3)OCO4)n(CCc3ccccc3)c(=O)c2S1` (stereo not drawn) [MLS000101671], the IC50 was over 10000 µM.

In turn, `CCc1ccc(NC(=O)c2cnc3scc(C)n3c2=O)cc1` [MLS000102000] came in with an IC50 of over 10000 µM.

`Cc1cccc(C(=O)Nc2cc(=O)n(C)c(=O)n2C)c1` [MLS000103605] had an IC50 of over 10000 µM.

For the compound `O=C(c1cc2nc(-c3ccc(F)cc3)cc(C(F)(F)F)n2n1)N1CCCC1` [MLS000109312], half-maximal inhibition (IC50) was put at 53 µM.

As for `CCC(=O)Nc1nnc(Sc2ccc(N(C)C)cc2)s1` [MLS000109846], the IC50 is over 10000 µM.

In the case of `Sc1nnc(-c2ccccc2)n1C1C=CCCC1` (stereo not drawn) [MLS000111390], the IC50 is over 10000 µM.

Consider `COC(=O)Cc1sc(=O)[nH]c1Nc1ccccc1` [MLS000111966], for which the IC50 was over 10000 µM.

`CC1CC(C)CN(CCCNC(=O)Cn2ncc3c(=O)oc4ccccc4c32)C1` (stereo not drawn) [MLS000116997] had an IC50 of over 10000 µM.

In the case of `CCOc1ccc(N(CC(=O)NC2CCCC(C)C2C)S(=O)(=O)c2c(C)noc2C)cc1` (stereo not drawn) [MLS000117395], the IC50 was over 10000 µM.

`CCOc1ccc(N(CC(=O)Nc2ccc(F)c(F)c2)S(=O)(=O)c2c(C)noc2C)cc1` [MLS000117397] registered an IC50 of over 10000 µM.

In turn, `CCN(CCNC(=O)C1CCN(c2nnc(-n3cccc3)s2)CC1)c1ccccc1` [MLS000119699] came in with an IC50 of over 10000 µM.

Take `CCOc1cc2[nH]c(=O)n(Cc3ccc(C(=O)NCCOC)cc3)c(=O)c2cc1OCC` [MLS000120003]: the IC50 came to 183 µM.

For the compound `CN(C)S(=O)(=O)c1cccc(C(=O)C2=C3SC=C(c4ccccc4)N3CC2)c1` [N,N-dimethyl-3-[(3-phenyl-5,6-dihydropyrrolo[2,1-b][1,3]thiazol-7-yl)carbonyl]benzenesulfonamide], the IC50 is over 10000 µM.

`COCCN(Cc1cc2cc3c(cc2[nH]c1=O)OCO3)C(=O)c1cccs1` [N-(2-methoxyethyl)-N-[(6-oxidanylidene-5H-[1,3]dioxolo[4,5-g]quinolin-7-yl)methyl]thiophene-2-carboxamide]: the IC50 worked out at 37.6 µM.

`COc1ccccc1NC(=O)CSc1nc(O)cc(=O)n1-c1ccccc1OC` [N-(2-methoxyphenyl)-2-[1-(2-methoxyphenyl)-6-oxidanyl-4-oxidanylidene-pyrimidin-2-yl]sulfanyl-ethanamide]: the IC50 is over 10000 µM.

Compound `Cc1cccc2cc(CN(Cc3ccco3)S(=O)(=O)c3ccc4c(c3)OCCO4)c(=O)[nH]c12` [N-(furan-2-ylmethyl)-N-[(8-methyl-2-oxidanylidene-1H-quinolin-3-yl)methyl]-2,3-dihydro-1,4-benzodioxine-6-sulfonamide] yielded an IC50 of over 10000 µM.

Consider `CCN(CC)CCCN(Cc1cc2cc3c(cc2nc1O)OCCO3)C(=O)Nc1ccccc1` [SMR000004152], for which the IC50 was over 10000 µM.

The compound `Nc1cc(N)cc(-c2nc3ccccc3[nH]2)c1` [SMR000008815] registered an IC50 of 79.1 µM.

`COc1ccc(-c2nc(C(N)=O)c3[nH]c(=O)n(-c4cccc(C)c4)c3n2)c(OC)c1` [SMR000016861] displayed an IC50 of 128 µM.

Compound `CCOC(=O)c1sc(Nc2nc3c(OC)cccc3s2)nc1C` [SMR000027213] yielded an IC50 of 2.35 µM.

On to `O=c1c2cc(N3CCOCC3)ccc2[nH]c(=S)n1CCCN1CCN(c2ccccc2F)CC1` [SMR000030978], for which the IC50 is 58.7 µM.

`Cc1ccc(C2C3CN(C(C)C)CCC3=C(C#N)C(=N)C2(C#N)C#N)cc1` (stereo not drawn) [SMR000034220] came in with an IC50 of 39.6 µM.

Compound `Cc1nc(-c2cnn(-c3ccccc3)c2)c2cc(C)oc2n1` [SMR000046165] displayed an IC50 of over 10000 µM.

Turning to `N#Cc1c(S)nc2c(c1-c1cccnc1)CCCC2` [SMR000104204], it took 20.1 µM to reach half-maximal inhibition (IC50).

`CCOC(=O)C1=C(C)N=C(C)C(C(=O)OCC)C1c1cc2ccc(C)cc2[nH]c1=O` (stereo not drawn) [diethyl 2,6-dimethyl-4-(7-methyl-2-oxidanylidene-1H-quinolin-3-yl)-1,4-dihydropyridine-3,5-dicarboxylate] had an IC50 of 150 µM.

Still in this experiment, the particulars now being: inactive by the depositor's call.
Turning to `COC(=O)Sc1nnc(-c2ccc(Br)cc2)o1` [MLS000084961], inhibition was half-maximal at 16.4 µM (IC50).

Turning to `Nc1nc2c(s1)CCc1c-2cnn1-c1ccccc1` [MLS000085948], 9.51 µM corresponded to half-maximal inhibition (IC50).

`Cc1csc2ncc(C(=O)Nc3ccccc3Cl)c(=O)n12` [MLS000102002] returned an IC50 of 47.4 µM.

The compound `Cc1ccc(-c2cc(C(F)(F)F)n3ncc(C(=O)NCc4ccco4)c3n2)cc1` [MLS000109298] registered an IC50 of 59.2 µM.

In turn, `CCCCNC(=O)c1ccc2nc(-c3ccco3)c(-c3ccco3)nc2c1` [MLS000119995] displayed an IC50 of 75.6 µM.
